Measurements from US20110306576A1, “COMPOUNDS AND METHODS RELATING THERETO” (PHARMALUCIA LIMITED, priority 2009, published 2011).
Where two headings read alike, the source gives them in different places.

Experiments:
[1] = system: Staphylococcus aureus (NCTC 6571); experiment: Antimicrobial screening, photobactericidal efficacy; type: cell-based
Experimental: (§1) The photobactericidal efficacies of the derivatives in addition to that of the known photosensitiser methylene blue were measured against both Gram positive Staphylococcus aureus (NCTC 6571) and Enterococcus faecalis (NCIMB 13280) and Gram negative Escherichia coli (NCTC 10418), Proteus mirabilis (NCIMB 5887) and a clinical strain of Klebsiella pneumoniae bacteria. Both strains were grown in Mueller-Hinton Broth and then diluted to a concentration of 10^6 colony-forming units/ml. Aliquots of the strains were then incubated for 1 hour at 37° C. in microtitre trays with various concentrations of photosensitiser in a range of from 100 to 3 μM, with zero photosensitiser concentrations in each case for control purposes. The trays were then either illuminated for twenty minutes using an array of light-emitting diodes (660 nm) giving a light dose of 6.2 J cm^−2 or alternatively foil-covered to provide dark controls. From each well showing an inhibition of growth of the micro-organism, 1 μl was sub-cultured on nutrient agar, using the Miles-Misra method, and incubated for 18 hours at 37° C. The minimum bactericidal concentrations were then determined as the lowest concentration for each photosensitiser giving no bacterial growth.

[2] = system: Escherichia coli (NCTC 10418); experiment: as above; type: cell-based
Experimental: as §1

[3] = Singlet oxygen production (TPCPD decolourisation in dichloromethane); settings: singlet oxygen yield relative to methylene blue (= 1.0), time for 50% decrease in TPCPD absorption at 500 nm
Text: Thus the decrease in absorption at 500 nm was monitored spectrophotometrically with time using the method described by Cincotta et al. in “Novel red absorbing benzo[α]phenoxazinium and benzo[α]phenothiazinium photosensitizers: in vitro evaluation”, Photochem. […] To calculate the singlet oxygen yield for the derivative compounds of the present invention (ΦΔDer), the following formula was used:

[4] = Hydrophilic-lipophilic balance (Log P), phosphate-buffered saline / 1-octanol
Experimental: The data were calculated using the standard spectrophotometric method [ref] based on the relationship:
where A and A^1 are the absorption intensities before and after partitioning respectively and Vw and Vo are the respective volumes of the aqueous and 1-octanol phases. Determinations were repeated three times.

[5] = system: clinical strain of Klebsiella pneumoniae; experiment: Antimicrobial screening, photobactericidal efficacy; type: cell-based; settings: for Minimum bactericidal/fungicidal concentration K. pneumoniae Dark: foil-covered dark control; for Minimum bactericidal/fungicidal concentration K. pneumoniae Light: illuminated 20 min, LED 660 nm, 6.2 J cm^−2
Experimental: as §1

[6] = system: Enterococcus faecalis (NCIMB 13280); experiment: as above; type: cell-based; settings: for Minimum bactericidal/fungicidal concentration E. faecalis Dark: foil-covered dark control; for Minimum bactericidal/fungicidal concentration E. faecalis Light: illuminated 20 min, LED 660 nm, 6.2 J cm^−2
Experimental: as §1

[7] = system: Proteus mirabilis (NCIMB 5887); experiment: as above; type: cell-based; settings: for Minimum bactericidal/fungicidal concentration P. mirabilis Dark: foil-covered dark control; for Minimum bactericidal/fungicidal concentration P. mirabilis Light: illuminated 20 min, LED 660 nm, 6.2 J cm^−2
Experimental: as §1

[8] = system: Candida albicans (NCPF 8179); experiment: Antifungal screening; type: cell-based; settings: Sabouraud broth and agar; for Minimum bactericidal/fungicidal concentration C. albicans Dark: foil-covered dark control; for Minimum bactericidal/fungicidal concentration C. albicans Light: illuminated 20 min, LED 660 nm, 6.2 J cm^−2
[9] = value given for the standard photosensitiser; cited from earlier work
[10] = Staphylococcus aureus, NCTC6571, foil-covered dark control, read-out: Minimum Bactericidal Concentration S. aureus (Dark)
[11] = Staphylococcus aureus, NCTC6571, illuminated 20 min, LED 660 nm, 6.2 J cm^−2, 1 h incubation at 37° C., read-out: Minimum Bactericidal Concentration S. aureus (Light)
[12] = Escherichia coli, NCTC10418, foil-covered dark control, read-out: Minimum Bactericidal Concentration E. coli (Dark)
[13] = Escherichia coli, NCTC10418, illuminated 20 min, LED 660 nm, 6.2 J cm^−2, 1 h incubation at 37° C., read-out: Minimum Bactericidal Concentration E. coli (Light)
[14] = partition between phosphate-buffered saline and 1-octanol, spectrophotometric method, repeated three times
[15] = foil-covered dark control, read-out: Minimum Bactericidal Concentration S. aureus (Dark)
[16] = illuminated 20 min, LED 660 nm, 6.2 J cm^−2, 1 h incubation at 37° C., read-out: Minimum Bactericidal Concentration S. aureus (Light)
[17] = foil-covered dark control, read-out: Minimum Bactericidal Concentration E. coli (Dark)
[18] = illuminated 20 min, LED 660 nm, 6.2 J cm^−2, 1 h incubation at 37° C., read-out: Minimum Bactericidal Concentration E. coli (Light)
[19] = phosphate-buffered saline / 1-octanol

Molecule	MBC [1, 10]	MBC [1, 11]	MBC [2, 12]	MBC [2, 13]	Relative ΦΔ [3]	logP [4, 14]	Minimum bactericidal/fungicidal concentration K. pneumoniae Dark [5]	Minimum bactericidal/fungicidal concentration K. pneumoniae Light [5]	MBC [1, 15]	MBC [1, 16]	Minimum bactericidal/fungicidal concentration E. faecalis Dark [6]	Minimum bactericidal/fungicidal concentration E. faecalis Light [6]	MBC [2, 17]	MBC [2, 18]	Minimum bactericidal/fungicidal concentration P. mirabilis Dark [7]	Minimum bactericidal/fungicidal concentration P. mirabilis Light [7]	Minimum bactericidal/fungicidal concentration C. albicans Dark [8]	Minimum bactericidal/fungicidal concentration C. albicans Light [8]	logP [4, 19]	singlet oxygen yield (ΦΔMB) [9]
CN(C)CCCN(CCCN(C)C)c1ccc2nc3ccc(N(CCCN(C)C)CCCN(C)C)cc3[s+]c2c1 [Example 4a, 3,7-Bis(bis(3-(dimethylamino)propyl)amino)phenothiazinium bromide]	6.25 µM	3.12 µM	12.5 µM	3.12 µM	–	–	–	–	–	–	–	–	–	–	–	–	–	–	–	–
3-(Di-n-hexylamino)-7-((2-(diethylamino)ethyl)(ethyl)amino)phenothiazinium iodide [Example 7b]	–	–	–	–	0.4	+1.25	100 µM	0.19 µM	12.5 µM	3.125 µM	100 µM	0.19 µM	25 µM	6.25 µM	100 µM	0.39 µM	25 µM	3.13 µM	–	–
CCN(CC)CCN(C)c1ccc2nc3ccc(N(CC)CC)cc3[s+]c2c1 [Example 7d, 3-(Diethylamino)-7-((2-(diethylamino)ethyl)(methyl)amino)phenothiazinium iodide]	50 µM	25 µM	100 µM	50 µM	1.4	–	–	–	–	–	–	–	–	–	–	–	–	–	0.74	–
CCCCN(CCCC)c1ccc2nc3ccc(N(CC)CCN(CC)CC)cc3[s+]c2c1 [Example 7c, 3-(Di-n-butylamino)-7-((2-(diethylamino)ethyl)(ethyl)amino)phenothiazinium iodide]	25 µM	12.5 µM	25 µM	6.25 µM	0.3	–	100 µM	6.25 µM	–	–	6.25 µM	0.39 µM	–	–	100 µM	0.78 µM	25 µM	3.13 µM	1.09	–
CO[Si](CCCNc1ccc2nc3ccc(N(C)C)cc3[s+]c2c1)(OC)OC [Example 2b, 3-(3-Trimethoxsilylpropyl)amino-7-dimethylaminophenothiazinium hydrogensulphate]	–	–	–	–	–	–	100 µM	1.56 µM	–	–	50 µM	0.78 µM	–	–	100 µM	1.56 µM	25 µM	3.13 µM	–	–
CCN(CC)CCCN(CCCN(CC)CC)c1ccc2nc3ccc(N(CCCN(CC)CC)CCCN(CC)CC)cc3[s+]c2c1 [Example 4b, 3,7-Bis(bis(3-(diethylamino)propyl)amino)phenothiazinium bromide]	100 µM	50 µM	100 µM	25 µM	–	–	–	–	–	–	–	–	–	–	–	–	–	–	0.11	–
CCN(CC)CCN(C)c1ccc2nc3ccc(N(C)CCN(CC)CC)cc3[s+]c2c1 [Example 4f, 3,7-Bis((2-(diethylamino)ethyl)(methyl)amino)phenothiazinium bromide]	> 100 µM	6.25 µM	> 100 µM	3.12 µM	0.6	–	–	–	–	–	–	–	–	–	–	–	–	–	0.27	–
OCCN(CCO)c1ccc2nc3ccc(NCCCN4CCOCC4)cc3[s+]c2c1.[I-] [Example 7f]	–	–	–	–	0.2	+0.57	–	–	25 µM	25 µM	–	–	50 µM	25 µM	–	–	–	–	–	–
CCCCN(CCCC)c1ccc2nc3ccc(N4CCN(CCN5CCN(c6ccc7nc8ccc(N(CCCC)CCCC)cc8[s+]c7c6)CC5)CC4)cc3[s+]c2c1.[I-].[I-] [Example 7g, 7,7′-(4,4′-(ethane-1,2-diyl)bis(piperazine-4,1-diyl))bis(3-(dibutylamino)phenothiazin-5-ium)iodide]	–	–	–	–	–	–	100 µM	3.13 µM	–	–	12.5 µM	1.56 µM	–	–	100 µM	0.78 µM	25 µM	3.13 µM	–	–
CCN(CC)CCCC(C)Nc1ccc2nc3ccc(N(CC)CC)cc3[s+]c2c1 (stereo not drawn) [Example 7a, 3-(Diethylamino)-7-(5-(diethylamino)pentan-2-ylamino)phenothiazinium iodide]	100 µM	25 µM	100 µM	50 µM	0.2	–	–	–	–	–	–	–	–	–	–	–	–	–	0.65	–
CCCN(CCC)c1ccc2nc3ccc(N(CCCN(C)C)CCCN(C)C)cc3[s+]c2c1 [Example 7e, 3-(Bis(3-(dimethylamino)propyl)amino)-7-(di-n-propylamino)phenothiazinium iodide]	> 100 µM	3.12 µM	> 100 µM	3.12 µM	–	–	100 µM	3.13 µM	–	–	100 µM	0.19 µM	–	–	100 µM	0.39 µM	100 µM	3.13 µM	–	–
CN(C)c1ccc2nc3ccc(N(C)C)cc3[s+]c2c1 [Methylene blue, reference compound]	–	25 µM	–	25 µM	1.00	–	–	–	–	–	–	–	–	–	–	–	–	–	–	0.443
